In patent US7541367B2, “3-benzoimidazolyl-pyrazolopyridines useful in treating kinase disorders” (Janssen Pharmaceutica, N.V., priority 2005, dated 2009):
pIC50: −log10 of the molar value.

What was measured:
A375 malignant melanoma = assay: Cell Proliferation Inhibition Assay (14C-thymidine incorporation), A375; format: cell-based; conditions: Homo sapiens, A-375, A375 cells;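 also: proliferation measured by radiolabelled thymidine uptake into new DNA, counted in scintillating 96-well plates, compound-treated wells compared with DMSO-only control wells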
HCT-116 colon carcinoma = assay: Cell Proliferation Inhibition Assay (14C-thymidine incorporation), HCT-116; format: cell-based; conditions: Homo sapiens;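 also: proliferation measured as methyl 14C-thymidine uptake into new DNA, counted in 96-well scintillating microplates, compared with DMSO-only control wells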
[1] = tested on: HeLa cervical adenocarcinoma; assay: Cell Proliferation Inhibition Assay (14C-thymidine incorporation), HeLa; format: cell-based; conditions: Homo sapiens, HeLa cells;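 also: test compound in DMSO added to cells seeded in scintillating 96-well plates, DMSO-only wells as control, uptake of methyl 14C-thymidine into new DNA counted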
VEGF-R2 = target: T1, VEGF-R2 (Rattus norvegicus, UniProt O08775); assay: VEGF-R2 kinase screening assay (33P-ATP FlashPlate); format: biochemical; conditions: rat VEGF-R2 kinase domain; 10 μM ATP; 1 hr at 30° C;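 also: Read-out is ³³P incorporation from ³³P-γ-ATP into biotinylated peptide substrate captured on streptavidin FlashPlate, counted by scintillation, 1% DMSO final, inhibition scaled between per-plate maximum and minimum signals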
T1 construct: polyhistidine (N)

HER2 = target: T2, HER2 (Homo sapiens, UniProt P04626); assay: HER2 kinase screening assay (33P-ATP FlashPlate); format: biochemical; conditions: GST-HIS6 HER-2 aa 679 to 1255; 10 μM ATP; 1 hr at 30° C;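 also: Biotin-poly(GT) 4:1 peptide captured on streptavidin FlashPlate, 33P transfer from γ-ATP read by scintillation counting, lower incorporation means inhibition, 1% DMSO final, 100 µL reaction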
T2 construct: GST (Glutathione-S-Transferase) (N); HIS6 (N); thrombin cleavage site (N); purchased Proqinase, Freiburg, Germany

Aurora-A = target: T3, Aurora-A (Mus musculus, UniProt P97477); assay: Aurora-A kinase screening assay (33P-ATP FlashPlate); format: biochemical; conditions: 10 μM ATP, 1 hr at 30° C;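 also: His-tagged mouse Aurora-A phosphorylating a biotinylated peptide captured on streptavidin plates, read as 33P uptake by scintillation counting, 1% DMSO, inhibition scaled between per-plate maximum and minimum signals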
T3 construct: polyhistidine (N)
T3 sequence (P97477 1-395): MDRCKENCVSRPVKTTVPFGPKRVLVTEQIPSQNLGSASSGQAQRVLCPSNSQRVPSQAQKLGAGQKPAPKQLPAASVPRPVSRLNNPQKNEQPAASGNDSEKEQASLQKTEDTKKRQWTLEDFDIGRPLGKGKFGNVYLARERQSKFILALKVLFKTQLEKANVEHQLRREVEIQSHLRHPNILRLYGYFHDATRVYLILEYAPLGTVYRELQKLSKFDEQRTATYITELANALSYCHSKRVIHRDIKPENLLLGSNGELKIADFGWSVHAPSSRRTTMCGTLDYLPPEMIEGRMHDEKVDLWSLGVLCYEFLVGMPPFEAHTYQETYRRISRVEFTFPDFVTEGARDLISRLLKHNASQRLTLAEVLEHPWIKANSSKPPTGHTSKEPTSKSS

CDK1 = target: T4, CDK1 (Homo sapiens, UniProt P06493); assay: CDK-1 kinase screening assay (33P-ATP FlashPlate); format: biochemical; conditions: human CDK1 with cyclin B; 10 μM ATP; 1 hr at 30° C
T4 construct: purchased New England Biolabs, Beverly, Mass; 6020; host or cells: insect cells
Method: A kinase reaction mixture was prepared containing 50 mM Tris-HCl pH=8, 10 mM MgCl2, 0.1 mM […], 1 mM DTT, 10 μM ATP, 0.025 μM biotinylated histone-H1 peptide substrate and 0.2 μCuries per well ^33P-γ-ATP (2000-3000 Ci/mmol). 70 μL of the kinase reaction mixture was dispensed into the well of a streptavidin coated FlashPlate™ (Cat. # SMP103, NEN, Boston, Mass.).
Test compound stock in 100% DMSO (1 μL) was added to the wells resulting in a final concentration of 1% DMSO in the reaction with a 100 μL final reaction volume. Each enzyme was diluted in 50 mM Tris-HCl pH=8.0, 0.11% BSA and 30 μL was added to each well to initiate the reaction. The reaction was incubated for one hour at 30° C. At the end of the 1 hr incubation, the reaction was terminated by aspirating the mixture from the plate and washing the wells twice with PBS containing 100 mM EDTA. The biotinylated peptide substrate became immobilized on the Flashplate™ and the incorporation of ^33P-γ-ATP was measured by reading the plate on a scintillation counter. Inhibition of the enzymatic activity was measured by observing a reduced amount of ^33P-γ-ATP incorporated into the immobilized peptide.
The CDK1 enzyme was isolated from insect cells expressing both the human CDK1 catalytic subunit (Accession number NM_001786) and its positive regulatory subunit cyclin B (New England Biolabs, Beverly, Mass.; Cat. # 6020). The assay used 30 ng of the N-terminal biotinylated peptide biotin-[…]-amide (Cyclin dependent kinase 1) per well.
A maximum and minimum signal for the assay was determined on each plate. The percent inhibition of a test compound was calculated according to the formula: […]
For a series of test concentrations, the IC50 was derived by graphing percent inhibition against the log of the concentrations tested for a given compound with results shown in Table 1.
For compounds with multiple values, each value represents a separate assay result.

T2 sequence (P04626 679-1255): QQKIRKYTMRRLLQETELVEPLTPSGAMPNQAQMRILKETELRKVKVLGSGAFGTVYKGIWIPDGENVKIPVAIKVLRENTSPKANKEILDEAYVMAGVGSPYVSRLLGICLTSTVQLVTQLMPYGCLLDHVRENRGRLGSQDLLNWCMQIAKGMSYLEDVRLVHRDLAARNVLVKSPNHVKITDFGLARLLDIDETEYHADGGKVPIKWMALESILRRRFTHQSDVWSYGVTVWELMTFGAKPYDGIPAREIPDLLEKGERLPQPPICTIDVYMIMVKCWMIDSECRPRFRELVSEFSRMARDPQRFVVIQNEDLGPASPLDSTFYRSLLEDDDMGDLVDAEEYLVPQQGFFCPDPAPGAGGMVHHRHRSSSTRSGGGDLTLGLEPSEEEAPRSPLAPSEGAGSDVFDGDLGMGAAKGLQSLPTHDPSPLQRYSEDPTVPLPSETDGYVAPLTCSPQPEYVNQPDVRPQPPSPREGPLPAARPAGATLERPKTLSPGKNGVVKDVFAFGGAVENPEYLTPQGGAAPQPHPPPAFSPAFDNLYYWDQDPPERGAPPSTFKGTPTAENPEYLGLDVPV
T1 sequence (O08775 786-1343): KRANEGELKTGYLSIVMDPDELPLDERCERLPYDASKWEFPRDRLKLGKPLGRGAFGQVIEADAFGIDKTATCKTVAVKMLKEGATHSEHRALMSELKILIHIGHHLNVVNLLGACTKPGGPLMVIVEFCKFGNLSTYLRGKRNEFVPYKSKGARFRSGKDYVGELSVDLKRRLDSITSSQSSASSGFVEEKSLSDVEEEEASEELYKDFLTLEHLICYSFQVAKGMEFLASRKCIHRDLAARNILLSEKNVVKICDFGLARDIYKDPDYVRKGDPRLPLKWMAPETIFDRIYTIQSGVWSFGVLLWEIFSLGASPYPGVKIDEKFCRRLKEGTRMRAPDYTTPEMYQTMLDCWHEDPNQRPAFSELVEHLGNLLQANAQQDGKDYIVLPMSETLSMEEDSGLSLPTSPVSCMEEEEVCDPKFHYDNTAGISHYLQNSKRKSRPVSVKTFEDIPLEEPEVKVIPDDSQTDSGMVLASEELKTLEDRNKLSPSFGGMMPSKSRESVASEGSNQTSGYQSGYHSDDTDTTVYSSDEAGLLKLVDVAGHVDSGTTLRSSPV
T4 sequence (P06493 whole entry): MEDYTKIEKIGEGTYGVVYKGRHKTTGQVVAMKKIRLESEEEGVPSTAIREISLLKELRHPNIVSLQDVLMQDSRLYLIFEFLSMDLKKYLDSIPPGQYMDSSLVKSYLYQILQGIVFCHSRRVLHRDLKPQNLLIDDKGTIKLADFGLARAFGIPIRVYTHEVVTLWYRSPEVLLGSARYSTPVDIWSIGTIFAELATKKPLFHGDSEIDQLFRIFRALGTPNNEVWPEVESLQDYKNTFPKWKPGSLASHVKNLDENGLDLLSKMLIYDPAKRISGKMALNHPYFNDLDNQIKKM
T4 sequence (P14635 whole entry partner): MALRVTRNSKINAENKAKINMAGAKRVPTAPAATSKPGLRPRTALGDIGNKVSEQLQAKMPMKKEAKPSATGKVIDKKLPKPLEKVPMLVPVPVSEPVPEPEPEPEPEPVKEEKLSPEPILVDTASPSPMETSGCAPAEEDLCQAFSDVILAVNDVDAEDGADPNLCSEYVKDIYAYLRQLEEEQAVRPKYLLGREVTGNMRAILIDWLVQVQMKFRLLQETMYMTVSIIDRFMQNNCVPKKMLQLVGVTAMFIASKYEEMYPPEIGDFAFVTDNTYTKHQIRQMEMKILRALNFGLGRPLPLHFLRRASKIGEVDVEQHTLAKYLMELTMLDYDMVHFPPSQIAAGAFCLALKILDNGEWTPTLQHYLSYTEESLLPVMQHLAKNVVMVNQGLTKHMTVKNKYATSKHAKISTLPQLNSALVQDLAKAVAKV

SMILES	pIC50 (A375 malignant melanoma)	pIC50 (HCT-116 colon carcinoma; HCT-116, HCT-116 cells)	pIC50 ([1]; HeLa)	pIC50 (VEGF-R2)	pIC50 (HER2)	pIC50 (Aurora-A)	pIC50 (CDK1)	pIC50 (HCT-116 colon carcinoma; HCT-116 cells)	pIC50 [1]
CCN(CC)C(=O)c1cccc2[nH]c(-c3n[nH]c4ncc(-c5cncc6ccccc56)cc34)nc12 [Cpd 19, 2-(5-isoquinolin-4-yl-1H-pyrazolo[3,4-b]pyridin-3-yl)-1H-benzoimidazole-4-carboxylic acid diethylamide]	5.80	5.74	6.01	~5.00	~4.00	< 6.00	7.27	–	–
COCc1cccc2[nH]c(-c3n[nH]c4ncc(-c5cccnc5)cc34)nc12 [Cpd 35, 3-(4-methoxymethyl-1H-benzoimidazol-2-yl)-5-pyridin-3-yl-1H-pyrazolo[3,4-b]pyridine]	7.48	7.73	6.19	6.80	< 4.00	< 6.00	7.53	–	–
COC(=O)c1cccc2[nH]c(-c3n[nH]c4ncc(-c5cccnc5)cc34)nc12 [Cpd 93, 2-(5-pyridin-3-yl-1H-pyrazolo[3,4-b]pyridin-3-yl)-1H-benzoimidazole-4-carboxylic acid methyl ester]	≤ 4.00	≤ 4.00	≤ 4.00	–	–	–	–	–	–
CC(C)(C)NC(=O)c1cccc2[nH]c(-c3n[nH]c4ncc(-c5cncc6ccccc56)cc34)nc12 [Cpd 20, 2-(5-isoquinolin-4-yl-1H-pyrazolo[3,4-b]pyridin-3-yl)-1H-benzoimidazole-4-carboxylic acid tert-butylamide]	7.15	7.26	6.78	~5.00	< 5.00	~6.00	7.54	–	–
COC(=O)c1ccc2[nH]c(-c3n[nH]c4ncc(-c5cccnc5)cc34)nc2c1 [Cpd 91, 2-(5-pyridin-3-yl-1H-pyrazolo[3,4-b]pyridin-3-yl)-3H-benzoimidazole-5-carboxylic acid methyl ester]	6.37	6.41	6.08	–	–	–	7.95	–	–
COCc1cccc2[nH]c(-c3n[nH]c4ncc(Br)cc34)nc12 [Cpd 11, 5-bromo-3-(4-methoxymethyl-1H-benzoimidazol-2-yl)-1H-pyrazolo[3,4-b]pyridine]	6.06	6.06	5.74	6.04	–	~5.00	6.45	–	–
CN1CCN(c2ccc3[nH]c(-c4n[nH]c5ncc(Br)cc45)nc3c2)CC1 [Cpd 30, 5-bromo-3-[5-(4-methyl-piperazin-1-yl)-1H-benzoimidazol-2-yl]-1H-pyrazolo[3,4-b]pyridine]	5.77	5.60	5.51	6.62	< 5.00	~6.00	6.37	–	–
CCCNCc1cncc(-c2cnc3[nH]nc(-c4nc5cc(OC)ccc5[nH]4)c3c2)c1 [Cpd 103, {5-[3-(5-methoxy-1H-benzoimidazol-2-yl)-1H-pyrazolo[3,4-b]pyridin-5-yl]-pyridin-3-ylmethyl}-propyl-amine]	7.41	–	–	7.32	5.67	6.57	9.40	7.47	7.21
c1ccc2c(-c3cnc4[nH]nc(-c5nc6ccccc6[nH]5)c4c3)cncc2c1 [Cpd 1, 4-[3-(1H-benzoimidazol-2-yl)-1H-pyrazolo[3,4-b]pyridin-5-yl]-isoquinoline]	–	–	–	5.83	6.85	–	7.63	–	–
COCc1cccc2[nH]c(-c3n[nH]c4ncc(-c5c[nH]c6ncccc56)cc34)nc12 [Cpd 37, 3-(4-methoxymethyl-1H-benzoimidazol-2-yl)-5-(1H-pyrrolo[2,3-b]pyridin-3-yl)-1H-pyrazolo[3,4-b]pyridine]	7.70	8.30	5.73	< 8.00	< 4.00	6.72	7.06	–	–
CN1CCN(c2ccc3[nH]c(-c4n[nH]c5ncc(-c6cncc(CN7CCCC7)c6)cc45)nc3c2)CC1 [Cpd 87, 3-[5-(4-methyl-piperazin-1-yl)-1H-benzoimidazol-2-yl]-5-(5-pyrrolidin-1-ylmethyl-pyridin-3-yl)-1H-pyrazolo[3,4-b]pyridine]	6.09	5.98	5.67	6.95	4.92	6.35	7.53	–	–
CNCc1cncc(-c2cnc3[nH]nc(-c4nc5cc6c(cc5[nH]4)OC(F)(F)O6)c3c2)c1 [Cpd 100, {5-[3-(2,2-difluoro-5H-[1,3]dioxolo[4′,5′:4,5]benzo[1,2-d]imidazol-6-yl)-1H-pyrazolo[3,4-b]pyridin-5-yl]-pyridin-3-ylmethyl}-methyl-amine]	7.28	6.63	7.26	~7.00	5.15	~5.00	8.80	–	–
Cc1cccc2[nH]c(-c3n[nH]c4ncc(-c5cncc6ccccc56)cc34)nc12 [Cpd 2, 4-[3-(4-methyl-1H-benzoimidazol-2-yl)-1H-pyrazolo[3,4-b]pyridin-5-yl]-isoquinoline]	5.77	5.79	5.51	–	–	–	7.01	–	–
CC(C)NC(=O)c1cccc2[nH]c(-c3n[nH]c4ncc(-c5cncc6ccccc56)cc34)nc12 [Cpd 18, 2-(5-isoquinolin-4-yl-1H-pyrazolo[3,4-b]pyridin-3-yl)-1H-benzoimidazole-4-carboxylic acid isopropylamide]	7.19	7.38	7.45	6.42	< 5.00	< 7.00	8.40	–	–
CCCNCc1cncc(-c2cnc3[nH]nc(-c4nc5cc(N6CCN(C)CC6)ccc5[nH]4)c3c2)c1 [Cpd 85, (5-{3-[5-(4-methyl-piperazin-1-yl)-1H-benzoimidazol-2-yl]-1H-pyrazolo[3,4-b]pyridin-5-yl}-pyridin-3-ylmethyl)-propyl-amine]	6.39	–	–	6.79	5.74	6.55	8.73	6.11	6.16
COCCNCc1cncc(-c2cnc3[nH]nc(-c4nc5cc(N6CCN(C)CC6)ccc5[nH]4)c3c2)c1 [Cpd 86, (2-methoxy-ethyl)-(5-{3-[5-(4-methyl-piperazin-1-yl)-1H-benzoimidazol-2-yl]-1H-pyrazolo[3,4-b]pyridin-5-yl}-pyridin-3-ylmethyl)-amine]	5.60	–	–	~7.00	5.98	6.37	8.29	5.64	5.64
CCNCc1cncc(-c2cnc3[nH]nc(-c4nc5c(COC)cccc5[nH]4)c3c2)c1C [Cpd 59, ethyl-{5-[3-(4-methoxymethyl-1H-benzoimidazol-2-yl)-1H-pyrazolo[3,4-b]pyridin-5-yl]-4-methyl-pyridin-3-ylmethyl}-amine]	–	–	–	5.33	–	5.10	6.97	–	–
CCN(CC)Cc1cccc2[nH]c(-c3n[nH]c4ncc(-c5cncc6ccccc56)cc34)nc12 [Cpd 5, diethyl-[2-(5-isoquinolin-4-yl-1H-pyrazolo[3,4-b]pyridin-3-yl)-1H-benzoimidazol-4-ylmethyl]-amine]	7.33	7.51	7.54	5.81	–	–	–	–	–
